Measurements reported in PubChem BioAssay AID1745844 (Carcinogenic Potency Database (CPDB), 2022).
Activity calls are given as the source filed them. How the calls were made is not given here.

System: rodent lifetime carcinogenesis bioassay, tumor incidence TD50
Test: carcinogenic potency in animals, long-term in vivo studies, CPDB compilation (AID 1745844)

With CCN(CC)C(=S)SSC(=S)N(CC)CC the TD50 (mouse, strain B6AKF1, females, oral dosing, site: any site (literature study), lesion: several types, types named in the paper, dosed 76 weeks, study length 76 weeks) was 1940 mg/kg/day, the TD50 (mouse, strain B6AKF1, females, oral dosing, site: lung, lesion: adenoma, dosed 76 weeks, study length 76 weeks) was 4140 mg/kg/day and the TD50 (mouse, strain B6AKF1, males, oral dosing, site: any site (literature study), lesion: several types, types named in the paper, dosed 76 weeks, study length 76 weeks) was 10.1 mg/kg/day. For the same molecule, the TD50 (mouse, strain B6AKF1, males, oral dosing, site: liver, lesion: hepatoma, dosed 76 weeks, study length 76 weeks) was 197 mg/kg/day, the TD50 (mouse, strain B6AKF1, males, oral dosing, site: subcutaneous tissue, lesion: fibrosarcoma, dosed 76 weeks, study length 76 weeks) was 15.4 mg/kg/day and the carcinogen call (mouse, strain B6C3F1, females, in feed, site: any site (literature study), lesion: several types, types named in the paper, dosed 108 weeks, study length 108 weeks) was “negative (inactive)”. The TD50 (mouse, strain B6C3F1, females, in feed, site: liver, lesion: hepatocellular adenoma + hepatocellular carcinoma + neoplastic nodule, dosed 108 weeks, study length 108 weeks) was 120 mg/kg/day, the TD50 (mouse, strain B6C3F1, females, in feed, site: lung, lesion: alveolar/bronchiolar adenoma + alveolar/bronchiolar carcinoma, dosed 108 weeks, study length 108 weeks) was 323 mg/kg/day and the TD50 (mouse, strain B6C3F1, females, oral dosing, site: any site (literature study), lesion: several types, types named in the paper, dosed 76 weeks, study length 76 weeks) was 64.5 mg/kg/day. For the same molecule, the TD50 (mouse, strain B6C3F1, females, oral dosing, site: liver, lesion: hepatoma, dosed 76 weeks, study length 76 weeks) was 283 mg/kg/day, the TD50 (mouse, strain B6C3F1, females, oral dosing, site: lung, lesion: adenoma, dosed 76 weeks, study length 76 weeks) was 283 mg/kg/day and the TD50 (mouse, strain B6C3F1, females, oral dosing, site: lung, lesion: carcinoma, dosed 76 weeks, study length 76 weeks) was 283 mg/kg/day. The TD50 (mouse, strain B6C3F1, females, oral dosing, site: lung, lesion: several types, types named in the paper, dosed 76 weeks, study length 76 weeks) was 138 mg/kg/day, the carcinogen call (mouse, strain B6C3F1, males, in feed, site: any site (literature study), lesion: several types, types named in the paper, dosed 108 weeks, study length 108 weeks) was “negative (inactive)” and the TD50 (mouse, strain B6C3F1, males, oral dosing, site: any site (literature study), lesion: several types, types named in the paper, dosed 76 weeks, study length 76 weeks) was 17 mg/kg/day. For the same molecule, the TD50 (mouse, strain B6C3F1, males, oral dosing, site: liver, lesion: hepatoma, dosed 76 weeks, study length 76 weeks) was 23.7 mg/kg/day, the TD50 (mouse, strain B6C3F1, males, oral dosing, site: lung, lesion: adenoma, dosed 76 weeks, study length 76 weeks) was 43.2 mg/kg/day and the carcinogen call (rat, strain Charles River CD (Sprague-Dawley), females, in feed, site: any site (literature study), lesion: one or several types, types not named, dosed 104 weeks, study length 104 weeks) was “negative (inactive)”. The TD50 (rat, strain Charles River CD (Sprague-Dawley), females, in feed, site: any site (literature study), lesion: several types, types named in the paper, dosed 78 weeks, study length 78 weeks) was 193 mg/kg/day, the TD50 (rat, strain Charles River CD (Sprague-Dawley), females, in feed, site: liver, lesion: neoplastic nodule, dosed 104 weeks, study length 104 weeks) was 41100 mg/kg/day (inactive) and the TD50 (rat, strain Charles River CD (Sprague-Dawley), females, in feed, site: mammary gland, lesion: several types, types named in the paper, dosed 78 weeks, study length 78 weeks) was 68.9 mg/kg/day. The carcinogen call (rat, strain Charles River CD (Sprague-Dawley), males, in feed, site: any site (literature study), lesion: one or several types, types not named, dosed 104 weeks, study length 104 weeks) was “negative (inactive)”, the carcinogen call (rat, strain Charles River CD (Sprague-Dawley), males, in feed, site: liver, lesion: hepatocellular carcinoma, dosed 104 weeks, study length 104 weeks) was “negative (inactive)” and the TD50 (rat, strain Charles River CD (Sprague-Dawley), males, in feed, site: liver, lesion: hepatocellular tumor, dosed 78 weeks, study length 78 weeks) was 366 mg/kg/day. The TD50 (rat, strain Charles River CD (Sprague-Dawley), males, in feed, site: liver, lesion: neoplastic nodule, dosed 104 weeks, study length 104 weeks) was 678 mg/kg/day (inactive), the carcinogen call (rat, strain Fischer 344, females, in feed, site: any site (literature study), lesion: several types, types named in the paper, dosed 107 weeks, study length 107 weeks) was “negative (inactive)” and the TD50 (rat, strain Fischer 344, females, in feed, site: liver, lesion: hepatocellular adenoma + hepatocellular carcinoma + neoplastic nodule, dosed 107 weeks, study length 107 weeks) was 1430 mg/kg/day. For the same molecule, the carcinogen call (rat, strain Fischer 344, males, in feed, site: any site (literature study), lesion: several types, types named in the paper, dosed 107 weeks, study length 107 weeks) was “negative (inactive)”.
For O=NN1CCOC(O)C1 (configuration not stated), the TD50 (rat, strain Fischer 344, females, in drinking water, site: liver, lesion: hepatocellular carcinoma, dosed 50 weeks, study length 122 weeks) was 14.9 mg/kg/day (inactive).
O=[N+]([O-])c1ccc(-c2nc(N3CCOCC3)c3ccccc3n2)s1 was tested, and the TD50 (rat, strain Sprague-Dawley, females, in feed, site: any site (literature study), lesion: several types, types named in the paper, dosed 46 weeks, study length 66 weeks) was 5.03 mg/kg/day.
CN(CCO)N=O showed a TD50 (rat, strain Fischer 344, males, by gavage, site: liver, lesion: hemangiosarcoma, dosed 69 weeks, study length 69 weeks) of 8.97 mg/kg/day, a TD50 (rat, strain Fischer 344, males, by gavage, site: liver, lesion: hepatocellular carcinoma, dosed 69 weeks, study length 69 weeks) of 1.29 mg/kg/day and a TD50 (rat, strain Fischer 344, males, by gavage, site: nasal cavity, lesion: squamous-cell carcinoma, dosed 69 weeks, study length 69 weeks) of 2.06 mg/kg/day. The TD50 (rat, strain Fischer 344, males, by gavage, site: nasal cavity, lesion: squamous-cell papilloma, dosed 69 weeks, study length 69 weeks) was 8.97 mg/kg/day.
Cc1cc(=O)[nH]c(=S)[nH]1 showed a TD50 (hamster, strain Not specified, females, in drinking water, site: thyroid gland, lesion: several types, types named in the paper, dosed 52 weeks, study length 52 weeks) of 53.4 mg/kg/day and a TD50 (mouse, strain C3H/FIB, both sexes, in feed, site: liver, lesion: hepatoma, dosed 51 weeks, study length 78 weeks) of 1370 mg/kg/day.
Molecule O=C1c2ccccc2C(=O)c2c(O)c(O)cc(O)c21 has a TD50 (rat, strain Fischer 344, males, in feed, site: urinary bladder, lesion: malignant tumor, dosed 74 weeks, study length 74 weeks) of 678 mg/kg/day, a TD50 (rat, strain Fischer 344, males, in feed, site: urinary bladder, lesion: squamous-cell carcinoma, dosed 74 weeks, study length 74 weeks) of 3680 mg/kg/day and a TD50 (rat, strain Fischer 344, males, in feed, site: urinary bladder, lesion: transitional-cell carcinoma, dosed 74 weeks, study length 74 weeks) of 865 mg/kg/day.
In the case of Nc1ccc(Cc2ccc(N)c(Cl)c2)cc1Cl, the TD50 (mouse, strain CD-1 HaM/ICR, females, in feed, site: any site (literature study), lesion: several types, types named in the paper, dosed 77 weeks, study length 90 weeks) is reported as 52.8 mg/kg/day, the TD50 (mouse, strain CD-1 HaM/ICR, females, in feed, site: liver, lesion: hepatoma, dosed 77 weeks, study length 90 weeks) is reported as 66.6 mg/kg/day and the TD50 (mouse, strain CD-1 HaM/ICR, females, in feed, site: liver, lesion: several types, types named in the paper, dosed 77 weeks, study length 90 weeks) is reported as 66.6 mg/kg/day. The TD50 (mouse, strain CD-1 HaM/ICR, females, in feed, site: lung, lesion: several types, types named in the paper, dosed 77 weeks, study length 90 weeks) was 556 mg/kg/day (inactive), the TD50 (mouse, strain CD-1 HaM/ICR, males, in feed, site: any site (literature study), lesion: several types, types named in the paper, dosed 77 weeks, study length 94 weeks) was 97.9 mg/kg/day and the TD50 (mouse, strain CD-1 HaM/ICR, males, in feed, site: liver, lesion: several types, types named in the paper, dosed 77 weeks, study length 94 weeks) was 471 mg/kg/day. For the same molecule, the TD50 (mouse, strain CD-1 HaM/ICR, males, in feed, site: lung, lesion: several types, types named in the paper, dosed 77 weeks, study length 94 weeks) was 342 mg/kg/day (inactive), the TD50 (rat, strain Charles River CD (Sprague-Dawley), males, in feed, site: any site (literature study), lesion: several types, types named in the paper, dosed 77 weeks, study length 98 weeks) was 33.4 mg/kg/day and the TD50 (rat, strain Charles River CD (Sprague-Dawley), males, in feed, site: liver, lesion: several types, types named in the paper, dosed 77 weeks, study length 98 weeks) was 70.1 mg/kg/day.
In the case of O=[As](O)(O)O, the TD50 (monkey, strain Cynomolgus [Macaca fascicularis], both sexes, in feed, site: any site (literature study), lesion: benign tumor, dosed 735 weeks, study length 735 weeks) is reported as 0.169 mg/kg/day, the TD50 (monkey, strain Cynomolgus [Macaca fascicularis], both sexes, in feed, site: kidney cortex, lesion: adenoma, dosed 735 weeks, study length 735 weeks) is reported as 0.029 mg/kg/day and the carcinogen call (rat, strain Osborne-Mendel, both sexes, in feed, site: any site (literature study), lesion: malignant tumor, dosed 104 weeks, study length 104 weeks) is reported as “negative (inactive)”. The carcinogen call (rat, strain Osborne-Mendel, both sexes, in feed, site: any site (literature study), lesion: several types, types named in the paper, dosed 104 weeks, study length 104 weeks) was “negative (inactive)”.
In the case of O=S(=O)(O)c1ccc2c(N=Nc3ccc(S(=O)(=O)O)c4ccccc34)c(O)c(S(=O)(=O)O)cc2c1, the TD50 (rat, strain Mongrel, both sexes, in feed, site: any site (literature study), lesion: several types, types named in the paper, dosed 108 weeks, study length 108 weeks) is reported as 632 mg/kg/day, the TD50 (rat, strain Non-inbred, both sexes, in feed, site: any site (literature study), lesion: several types, types named in the paper, dosed 143 weeks, study length 143 weeks) is reported as 3320 mg/kg/day and the TD50 (rat, strain Non-inbred, both sexes, in feed, site: liver, lesion: hepatoma, dosed 143 weeks, study length 143 weeks) is reported as 49500 mg/kg/day. For the same molecule, the TD50 (rat, strain Not specified, females, in feed, site: any site (literature study), lesion: several types, types named in the paper, dosed 64 weeks, study length 64 weeks) was 1640 mg/kg/day (inactive), the carcinogen call (rat, strain Not specified, females, in feed, site: liver, lesion: one or several types, types not named, dosed 64 weeks, study length 64 weeks) was “negative (inactive)” and the carcinogen call (rat, strain Not specified, males, in feed, site: any site (literature study), lesion: several types, types named in the paper, dosed 64 weeks, study length 64 weeks) was “negative (inactive)”. For the same molecule, the carcinogen call (rat, strain Not specified, males, in feed, site: liver, lesion: one or several types, types not named, dosed 64 weeks, study length 64 weeks) was “negative (inactive)”, the carcinogen call (rat, strain Sprague-Dawley, females, in feed, site: any site (literature study), lesion: one or several types, types not named, dosed 52 weeks, study length 52 weeks) was “negative (inactive)” and the carcinogen call (rat, strain Sprague-Dawley, females, in feed, site: liver, lesion: one or several types, types not named, dosed 52 weeks, study length 52 weeks) was “negative (inactive)”. It also gave a TD50 (rat, strain Wistar, both sexes, in feed, site: abdomen, lesion: malignant lymphoma, dosed 91 weeks, study length 91 weeks) of 6130 mg/kg/day.
